Experimental data published in patent US5064833A, “Substituted quinazoline derivatives for use in gastrointestinal diseases” (Smithkline Beecham Intercredit B.V., priority 1989, dated 1991).
Where a name gives a salt, the structure may show the parent alone.

Assays:
[1] = test system: pentagastrin stimulated gastric acid secretion; assay: Rat lumen perfused stomach (pentagastrin stimulated gastric acid secretion); type: in vivo; conditions: iv, i.v. administration, 10 μmole/kg, read-out: Rat G.S. % inhibition @ 10 μmole/kg
From the text: Using a modification of the procedure described by Ghosh and Schild (Br. J. Pharmacology, 13, 54, 1958), the compounds of the following Examples were found on i.v. administration at a concentration of 10 μmole/kg to cause an inhibition of pentagastrin stimulated gastric acid secretion as indicated in the following Table.

isolated rat osteoclasts = assay: Bone resorption by isolated rat osteoclasts on cortical bone slices; type: cell-based; conditions: Osteoclast, 18 hours, control = 100 ± 27, Mean ± SEM, n = 12
Method: Bone resorption was measured by the actions of isolated rat osteoclasts on cortical bone slices (Zaidi et al Quarterly Journal of Experimental Physiology 1988 73:471-485). Newborn Wistar rats were killed by decapitation and their femora and tibiae removed. Osteoclasts were mechanically disaggregated by curetting the bones into medium followed by agitation with a pipette. Osteoclasts were separated from other cells by sedimentation onto bone slices (15 minutes, 37°) after which the slices were removed and gently washed. The bone slices were then incubated in the presence of test compounds (37°, 10% humidified CO2, 18 hours) and fixed with glutaraldehyde. The degree of bone resorption was then assessed by the area of erosions produced by the osteoclasts using scanning electron microscopy. Data were meaned from measurements of 6 bone slices in each of two independent experiments.
Test compounds were dissolved in ethanol which was also added to control incubations (1%) in the absence of compound.

Compound | inhibition in vivo at 10 µmol/kg [1] | other results
CNc1nc(Nc2ccccc2C)c2cccc(OC)c2n1 [Example 13, 2-methylamino-8-methoxy-4-(2-methylphenylamino)quinazoline] | 20% | –
Cc1ccccc1CNc1nc(N(C)c2ccccc2)c2ccccc2n1 [Example 31, 2-(2-methvlbenzylamino)-4-(N-methylphenylamino)quinazoline hydrochloride] | 8% | –
COc1cccc2c(Nc3ccccc3C)nc(N(C)C)nc12 [Example 5, 2-dimethylamino-8-methoxy-4-(2-methylphenylamino)quinazoline] | 37% | –
Cc1ccccc1Nc1nc(N2CCCC2)nc2ccccc12 [Example 8, 2-pyrrolidino-4-(2-methylphenylamino)quinazoline] | 17% | –
Cc1cc(F)ccc1Nc1nc(N(C)c2ccccc2)c2ccccc2n1 [Example 32, 2-(2-methyl-4-fluorophenyl)amino]-4-(N-methylphenylamino)quinazoline hydrochloride] | 96% | –
COc1cccc2c(N(C)c3ccccc3)nc(Nc3ccccc3C)nc12 [Example 24, 4-(N-methylphenylamino)-2-(2-methylphenylamino)-8-methoxyquinazoline] | 97% | –
Cc1ccccc1Nc1nc(NCCc2ccccc2)nc2ccccc12 [Example 16, 2-phenylethylamino-4-(2-methylphenylamino)quinazoline] | 31% | –
Cc1ccccc1Nc1nc(N(C)c2ccccc2)nc2ccccc12 [Example 22, 2-(N-methylphenylamino)-4-(2-methylphenylamino)quinazoline hydrochloride] | 27% | –
CN(c1ccccc1)c1nc(Nc2ccccc2)nc2ccccc12 [Example 27, 2-phenylamino-4-(N-methylphenylamino)quinazoline hydrochloride] | 71% | –
COc1ccc(Nc2nc(N)nc3c(OC)cccc23)c(C)c1 [Example 3, 2-amino-8-methoxy-4-(2-methyl-4-methoxyphenylamino)quinazoline] | 16% | –
Cc1cc(F)ccc1Nc1nc(N(C)c2ccccc2)c2cc(O)ccc2n1 [Example 56, 4-(N-methylphenylamino)-2-[(2-methyl-4-fluorophenyl)amino]-6-hydroxyquinazoline hydrochloride] | – | activity at 10 µM (isolated rat osteoclasts; 10 μM): 7 ± 4%; activity at 100 µM (isolated rat osteoclasts; 100 μM): 7%
Cc1ccccc1Nc1nc(N(C)c2ccccc2)c2ccccc2n1 [Example 26, 2-(2-methylphenylamino)-4-(N-methylphenylamino)quinazoline hydrochloride] | 79% | –
COc1cccc2c(NCc3ccccc3)nc(N)nc12 [Example 2, 2-amino-8-methoxy-4-benzylaminoquinazoline] | 25% | –
COc1cccc2c(Nc3ccccc3C)nc(N(C)c3ccccc3)nc12 [Example 21, 2-(N-methylphenylamino)-4-(2-methylphenylamino)-8-methoxyquinazoline] | 37% | –
Cc1ccccc1Nc1nc(N)nc2ccccc12 [Example 7, 2-amino-4-(2-methylphenylamino)quinazoline] | 20% | –
Cc1ccccc1Nc1nc(N)nc2c(C)cccc12 [Example 6, 2-amino-8-methyl-4-(2-methylphenylamino)quinazoline] | 48% | –
Cc1ccccc1CNc1nc(N)nc2ccccc12 [Example 25, 2-amino-4-(2-methylbenzylamino)quinazoline] | 24% | –
COc1cccc2c(NCc3ccccc3C)nc(N)nc12 [Example 4, 2-amino-8-methoxy-4-(2-methylbenzylamino)quinazoline] | 37% | –
COc1cccc2c(N(C)c3ccccc3)nc(N)nc12 [Example 29, 2-amino-4-(N-methylphenylamino)-8-methoxyquinazoline hydrochloride] | 13% | –
COc1ccccc1Nc1nc(N)nc2c(OC)cccc12 [Example 18, 2-amino-8-methoxy-4-(2-methoxyphenylamino)quinazoline] | 12% | –
COc1cccc2c(Nc3ccccc3C)nc(N3CCCC3)nc12 [Example 15, 2-pyrrolidino-8-methoxy-4-(2-methylphenylamino)quinazoline] | 31% | –
Cc1cc(O)ccc1Nc1nc(N(C)c2ccccc2)c2ccccc2n1 [Example 30, 2-(4-hydroxy-2-methylphenyl)amino1-4-(N-methylphenylamino) quinazoline hydrochloride] | 23% | –
CCc1ccc2nc(N)nc(Nc3ccccc3C)c2c1 [Example 11, 2-amino-4-(2-methylphenylamino)-6-ethylquinazoline] | 28% | –
CN(c1ccccc1)c1nc(N(C)c2ccccc2)c2ccccc2n1 [Example 20, 2,4-Bis-(N-methylphenylamino)quinazoline hydrochloride] | 72% | –
COc1cccc2c(Nc3ccccc3C)nc(N)nc12 [Example 1, 2-amino-8-methoxy-4-(2-methylphenylamino)quinazoline] | 60% | –
